Data as given in patent US11566007B2, “Ras inhibitors” (Revolution Medicines, Inc., priority 2019, dated 2023).
Like-named read-outs stand apart in the source and are kept apart here.

Columns and labels:
[1] = system: NCI-H358 cells (K-Ras G12C); test: Potency assay: pERK in NCI-H358 cells; format: cell-based, human; conditions: Homo sapiens, NCI-H358; H358 KRAS G12C; read-out: pERK EC50
Procedure, shortened: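 4 h cpd, 37 °C; 10-pt 3-fold series, 10 mM DMSO top stock, duplicates. Readout pERK: AlphaLISA SureFire Ultra or In-Cell Western (IR-800CW secondary, DRAQ5 DNA stain). IC50, 4-PL fit vs log conc.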

K-Ras G13C = K-Ras G13C (Homo sapiens (Human), UniProt P01116+P62937, G13C); test: Ras-Raf (BRAF RBD) disruption / FRET / MOA assay, KRAS G13C; format: biochemical; conditions: KRAS G13C; Ras-Raf disruption/FRET/MOA assay; read-out: IC50* KRAS G13C FRET data
Procedure, shortened: (§1)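 Ras:RAF disruption was scored as a fall in TR-FRET ratio relative to DMSO. Compound ranged in 3-fold steps over 10 points from 30 μM final; incubation ran 3 h at 25° C, detection antibodies a further 1.5 h. Reported as IC50.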

KRAS G13D = KRAS G13D (Homo sapiens (Human), UniProt P01116+P62937, G13D); test: Ras-Raf (BRAF RBD) disruption / FRET / MOA assay, KRAS G13D; format: biochemical
Procedure, shortened: as §1

[2] = read-out: IC50* KRAS G13D FRET data

Chain of K-Ras G13C (P01116-2 other isoform, or with tags, fused parts or gaps G13C): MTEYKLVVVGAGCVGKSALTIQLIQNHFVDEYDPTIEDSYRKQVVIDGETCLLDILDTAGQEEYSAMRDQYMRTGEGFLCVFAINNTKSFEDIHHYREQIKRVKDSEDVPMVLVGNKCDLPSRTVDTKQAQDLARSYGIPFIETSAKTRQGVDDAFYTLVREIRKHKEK
Chain of K-Ras G13C (P62937 whole entry): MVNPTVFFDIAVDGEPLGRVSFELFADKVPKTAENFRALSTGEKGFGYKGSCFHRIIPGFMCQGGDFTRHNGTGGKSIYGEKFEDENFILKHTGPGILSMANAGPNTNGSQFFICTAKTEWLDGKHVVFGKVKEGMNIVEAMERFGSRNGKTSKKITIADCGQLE
Chain of KRAS G13D (P01116-2 other isoform, or with tags, fused parts or gaps G13D): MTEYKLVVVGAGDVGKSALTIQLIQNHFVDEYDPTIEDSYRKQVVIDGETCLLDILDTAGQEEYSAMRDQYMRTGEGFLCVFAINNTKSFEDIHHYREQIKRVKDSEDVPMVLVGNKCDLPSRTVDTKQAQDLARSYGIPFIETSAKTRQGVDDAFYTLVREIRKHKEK
Chain of KRAS G13D (P62937 whole entry): as the sequence (P62937 whole entry) above

SMILES	EC50 [1] [nM]	IC50 (K-Ras G13C) [nM]	IC50 (KRAS G13D; [2]) [nM]	IC50 (KRAS G13D; IC50* KRAS G13D FRET data) [nM]
C=CC(=O)N1CC[C@H](C(=O)N(C)[C@H](C(=O)N[C@H]2CC3=NC=C(O3)c3ccc4c(c3)c(c(-c3cccnc3[C@H](C)OC)n4CC)CC(C)(C)COC(=O)[C@@H]3CCCN(N3)C2=O)C(C)C)C1 (atropisomer, axis not shown) [Example A278]	< 5000	1000 to 10000	1000 to 10000	–
CCn1c(-c2cccnc2[C@H](C)OC)c2c3cc(ccc31)-c1cccc(c1)C[C@H](NC(=O)[C@H](C(C)C)N(C)C(=O)[C@H]1CCN(C(=O)C#CC(C)(C)N(C)C)C1)C(=O)N1CCC[C@H](N1)C(=O)OCC(C)(C)C2 (atropisomer, axis not shown) [Example A290]	< 5000	1000 to 10000	1000 to 10000	–
C=CS(=O)(=O)N1CCC2(CCN([C@H](C(=O)N[C@H]3Cc4cc(O)cc(c4)-c4ccc5c(c4)c(c(-c4cccnc4[C@H](C)OC)n5CC)CC(C)(C)COC(=O)[C@@H]4CCCN(N4)C3=O)C(C)C)C2=O)CC1 (atropisomer, axis not shown) [Example A299]	< 5000	< 10	100 to 1000	–
CO[C@@H](C)c1ncccc1-c1c2c3cc(ccc3n1CC(F)(F)F)-c1csc(n1)C[C@H](NC(=O)[C@@H](COC1CN(C(=O)C#CC(C)(C)N(C)C)C1)C(C)C)C(=O)N1CCC[C@H](N1)C(=O)OCC(C)(C)C2 (atropisomer, axis not shown) [Example A343]	< 5000	1000 to 10000	> 10000	–
C=CC(=O)N1CC[C@H](C(=O)N(C)[C@H](C(=O)N[C@H]2Cc3cc(cc(C(F)F)c3)-c3ccc4c(c3)c(c(-c3cc(N5CCN(C)CC5)cnc3[C@H](C)OC)n4CC(F)(F)F)CC(C)(C)COC(=O)[C@@H]3CCCN(N3)C2=O)C(C)C)C1 (atropisomer, axis not shown) [Example A357]	< 5000	100 to 1000	100 to 1000	–
CO[C@@H](C)c1ncccc1-c1c2c3cc(ccc3n1CC(F)(F)F)-c1cccc(c1)C[C@H](NC(=O)[C@@H](COC1CN(C(=O)C#CC(C)(C)N(C)C)C1)C(C)C)C(=O)N1CCC[C@H](N1)C(=O)OCC(C)(C)C2 (atropisomer, axis not shown) [Example A376]	< 5000	1000 to 10000	> 10000	–
C=CC(=O)N1C[C@H](C)N(C(=O)N(C)[C@H](C(=O)N[C@H]2Cc3nc(cs3)-c3ccc4c(c3)c(c(-c3cccnc3[C@H](C)OC)n4CC)CC(C)(C)COC(=O)[C@@H]3CCCN(N3)C2=O)C(C)C)C[C@@H]1C (atropisomer, axis not shown) [Example A385]	< 5000	10 to 100	100 to 1000	–
C=CC(=O)N1CCC12CN(C(=O)N(C)[C@H](C(=O)N[C@H]1Cc3nc(cs3)-c3ccc4c(c3)c(c(-c3cccnc3[C@H](C)OC)n4CC)CC(C)(C)COC(=O)[C@@H]3CCCN(N3)C1=O)C(C)C)C2 (atropisomer, axis not shown) [Example A393]	< 5000	100 to 1000	1000 to 10000	–
CCn1c(-c2cccnc2[C@H](C)OC)c2c3cc(ccc31)-c1cc(F)cc(c1)C[C@H](NC(=O)[C@@H](COC1CN(C(=O)C#CC(C)(C)N(C)C)C1)C(C)C)C(=O)N1CCC[C@H](N1)C(=O)OCC(C)(C)C2 (atropisomer, axis not shown) [Example A403]	< 5000	1000 to 10000	> 10000	–
C=CC(=O)N1CC2(CCN2C(=O)N(C)[C@H](C(=O)N[C@H]2Cc3nc(cs3)-c3ccc4c(c3)c(c(-c3cccnc3[C@H](C)OC)n4CC)CC(C)(C)COC(=O)[C@@H]3CCCN(N3)C2=O)C(C)C)C1 (atropisomer, axis not shown) [Example A407]	< 5000	100 to 1000	100 to 1000	–
C=CC(=O)N1CC[C@H](C(=O)N(C)[C@H](C(=O)N[C@H]2CC3=NN=C(O3)c3ccc4c(c3)c(c(-c3cccnc3[C@H](C)OC)n4CC)CC(C)(C)COC(=O)[C@@H]3CCCN(N3)C2=O)C(C)C)C1 (atropisomer, axis not shown) [Example A447]	< 5000	1000 to 10000	> 10000	–
C=CC(=O)Nc1ncc(C(=O)N(C)[C@H](C(=O)N[C@H]2Cc3cccc(c3)-c3ccc4c(c3)c(c(-c3cccnc3[C@H](C)OC)n4CC)CC(C)(C)COC(=O)[C@@H]3CCCN(N3)C2=O)C(C)C)n1C (atropisomer, axis not shown) [Example A474]	< 5000	< 10	1000 to 10000	–
C=CC(=O)N1CC[C@H](C(=O)N2CC[C@H](C)[C@H]2C(=O)N[C@H]2Cc3cccc(c3)-c3ccc4c(c3)c(c(-c3cccnc3[C@H](C)OC)n4CC)CC(C)(C)COC(=O)[C@@H]3CCCN(N3)C2=O)C1 (atropisomer, axis not shown) [Example A494]	< 5000	1000 to 10000	> 10000	–
C=CC(=O)N1CC[C@H](C(=O)N2CCCCC[C@H]2C(=O)N[C@H]2Cc3cccc(c3)-c3ccc4c(c3)c(c(-c3cccnc3[C@H](C)OC)n4CC)CC(C)(C)COC(=O)[C@@H]3CCCN(N3)C2=O)C1 (atropisomer, axis not shown) [Example A496]	< 5000	1000 to 10000	> 10000	–
CCn1c(-c2cccnc2[C@H](C)OC)c2c3cc(ccc31)-c1cccc(c1)C[C@H](NC(=O)[C@H](C(C)C)N1CC[C@]3(CCN(C(=O)C#CC(C)(C)N(C)C)C3)C1=O)C(=O)N1CCC[C@H](N1)C(=O)OCC(C)(C)C2 (atropisomer, axis not shown) [Example A534, (2S)-2-((S)-7-(4-(dimethylamino)-4-methylpent-2-ynoyl)-1-oxo-2,7-diazaspiro[4.4]nonan-2-yl)-N-((6^3S,4S)-1^1-ethyl-1^2-(2-((S)-1-methoxyethyl)pyridin-3-yl)-10,10-dimethyl-5,7-dioxo-6^1,6^2,6^3,6^4,6^5,6^6-hexahydro-1^1H-8-oxa-1(5,3)-indola-6(1,3)-pyridazina-2(1,3)-benzenacycloundecaphane-4-yl)-3-methylbutanamide]	< 5000	100 to 1000	1000 to 10000	–
C=CC(=O)N1CC[C@H]2[C@@H]1CN2C(=O)N(C)[C@H](C(=O)N[C@H]1Cc2nc(cs2)-c2ccc3c(c2)c(c(-c2cccnc2[C@H](C)OC)n3CC)CC(C)(C)COC(=O)[C@@H]2CCCN(N2)C1=O)C(C)C (atropisomer, axis not shown) [Example A547]	< 5000	100 to 1000	1000 to 10000	–
CCn1c(-c2cccnc2[C@H](C)OC)c2c3cc(ccc31)-c1cccc(c1)C[C@H](NC(=O)[C@H](C(C)C)N1CC[C@@]3(CCN(C(=O)C#C[C@@H]4COCCN4C)C3)C1=O)C(=O)N1CCC[C@H](N1)C(=O)OCC(C)(C)C2 (atropisomer, axis not shown) [Example A549]	< 5000	100 to 1000	–	1000 to 10000
CCn1c(-c2cccnc2[C@H](C)OC)c2c3cc(ccc31)-c1cccc(c1)C[C@H](NC(=O)[C@H](C(C)C)N1CC[C@]3(CCN(C(=O)C#C[C@@]4(N(C)C)CCOC4)C3)C1=O)C(=O)N1CCC[C@H](N1)C(=O)OCC(C)(C)C2 (atropisomer, axis not shown) [Example A560]	< 5000	100 to 1000	1000 to 10000	–
C=CC(=O)N1C[C@@H]2CN(C(=O)N(C)[C@H](C(=O)N[C@H]3Cc4nc(cs4)-c4ccc5c(c4)c(c(-c4cccnc4[C@H](C)OC)n5CC)CC(C)(C)COC(=O)[C@@H]4CCCN(N4)C3=O)C(C)C)[C@@H]2C1 (atropisomer, axis not shown) [Example A561]	< 5000	100 to 1000	1000 to 10000	–
C=CC(=O)N1CCO[C@H]2CN(C(=O)N(C)[C@H](C(=O)N[C@H]3CC4=NN=C(O4)c4ccc5c(c4)c(c(-c4cccnc4[C@H](C)OC)n5CC(F)(F)F)CC(C)(C)COC(=O)[C@@H]4CCCN(N4)C3=O)C(C)C)C[C@H]21 (atropisomer, axis not shown) [Example A576]	< 5000	100 to 1000	> 10000	–
CO[C@@H](C)c1ncccc1-c1c2c3cc(ccc3n1CC(F)(F)F)-c1nc(co1)C[C@H](NC(=O)[C@H](C(C)C)N(C)C(=O)C1(F)CCN(C(=O)C#CC(C)(C)N(C)C)CC1)C(=O)N1CCC[C@H](N1)C(=O)OCC(C)(C)C2 (atropisomer, axis not shown) [Example A578]	< 5000	10 to 100	100 to 1000	–
CCn1c(-c2cccnc2[C@H](C)OC)c2c3cc(ccc31)-c1cccc(c1)C[C@H](NC(=O)[C@@H](CO[C@H]1CCN(C(=O)C#CC(C)(C)N(C)C)C1)C(C)C)C(=O)N1CCC[C@H](N1)C(=O)OCC(C)(C)C2 (atropisomer, axis not shown) [Example A585]	< 5000	1000 to 10000	> 10000	–
CCn1c(-c2cccnc2[C@H](C)OC)c2c3cc(ccc31)C1=CCCN(C1)C[C@H](NC(=O)[C@H](C(C)C)N(C)C(=O)C1(F)CCN(C(=O)C#CC(C)(C)N(C)C)CC1)C(=O)N1CCC[C@H](N1)C(=O)OCC(C)(C)C2 (atropisomer, axis not shown) [Example A591]	< 5000	10 to 100	100 to 1000	–
CCn1c(-c2cccnc2[C@H](C)OC)c2c3cc(ccc31)-c1cccc(c1)C[C@H](NC(=O)[C@@H](COC1CN(C(=O)C#CC(C)(C)N(C)C(C)C)C1)C(C)C)C(=O)N1CCC[C@H](N1)C(=O)OCC(C)(C)C2 (atropisomer, axis not shown) [Example A599]	< 5000	1000 to 10000	> 10000	–
CO[C@@H](C)c1ncccc1-c1c2c3cc(ccc3n1CC(F)(F)F)-c1cccc(c1)CN(NC(=O)[C@@H](COC1CN(C(=O)C#CC(C)(C)N(C)C)C1)C(C)C)C(=O)N1CCC[C@H](N1)C(=O)OCC(C)(C)C2 (atropisomer, axis not shown) [Example A601]	< 5000	100 to 1000	1000 to 10000	–
